Test results published in patent US6653081B2, “Methods for monitoring antiretroviral therapy and guiding therapeutic decision in the treatment of HIV/AIDS” (ViroLogic, Inc., priority 2000, dated 2003).

Assays:
Type in all cases: cell-based, HIV
RTV-1046 and RTV-887 = assay: Phenotypic susceptibility assay, RTV-1046 and RTV-887; conditions: patient ARG-014, weeks 8 and 16; Y181C and M230L present
Text: (§1) The resistance test vectors containing a functional luciferase gene cassette were constructed and host cells were transfected with the resistance test vector DNA. The resistant test vectors contained patient-derived reverse transcriptase and protease sequences that were either susceptible or resistant to the antiretroviral agents, such as nucleoside reverse transcriptase inhibitors, (NRTIs) non-nucleoside reverse transcriptase inhibitors […] protease inhibitors. The resistance test vector viral particles produced by transfecting the resistance test vector DNA into host cells, either in the presence or absence of PRIs, were used to infect target host cells grown either in the absence of NRTIs or NNRTIs, or in the presence of increasing concentrations of the drug. The amount of luciferase activity produced in infected target host cells in the presence of varying concentrations of drug was compared to the amount of luciferase produced in infected target host cells in the absence of drug. […] The IC50 values were determined by plotting percent drug inhibition vs. log10 drug concentration. Stimulation of viral replication was measured as the percent increase in luciferase activity detected when infection occurs in the presence of drug as compared to in the absence of drug.
(§2) Host cells were seeded in 10-cm-diameter dishes and were transfected several days after plating with resistance test vector plasmid DNA and the envelope expression vector. […] HIV capsid protein (p24) levels in the harvested cell culture media were determined by an EIA method as described by the manufacturer (SAIC; Frederick, Md.). […] The inhibitory effect of the drug was determined using the following equation: […]
(§3) where RLUluc [drug] is the Relative Light Unit of luciferase activity in infected cells in the presence of drug, and RLUluc is the Relative Light Unit of luciferase activity in infected cells in the absence of drug. […] The percent luciferase stimulation is the negative of the % inhibition calculated using the formula above. […]

RTV-010829 = assay: Phenotypic susceptibility assay, RTV-010829; conditions: patient 10829; for decrease in susceptibility: K103N, V245E, I270M
Text: (§4) The resistance test vectors containing a functional luciferase gene cassette were constructed and host cells were transfected with the resistance test vector DNA. The resistant test vectors contained patient-derived reverse transcriptase and protease sequences that were either susceptible or resistant to the antiretroviral agents, such as nucleoside reverse transcriptase inhibitors, (NRTIs) non-nucleoside reverse transcriptase inhibitors […] protease inhibitors. The resistance test vector viral particles produced by transfecting the resistance test vector DNA into host cells, either in the presence or absence of PRIs, were used to infect target host cells grown either in the absence of NRTIs or NNRTIs, or in the presence of increasing concentrations of the drug. The amount of luciferase activity produced in infected target host cells in the presence of varying concentrations of drug was compared to the amount of luciferase produced in infected target host cells in the absence of drug. “Drug resistance” was measured as the amount of drug required to inhibit by 50% the luciferase activity detected in the absence of drug (inhibitory concentration 50%, IC50). The IC50 values were determined by plotting percent drug inhibition vs. log10 drug concentration. Stimulation of viral replication was measured as the percent increase in luciferase activity detected when infection occurs in the presence of drug as compared to in the absence of drug.
(§5) Host cells were seeded in 10-cm-diameter dishes and were transfected several days after plating with resistance test vector plasmid DNA and the envelope expression vector. Transfections were performed using a calcium-phosphate precipitation procedure. The cell culture media containing the DNA precipitate was replaced with fresh medium, from one to 24 hours, after transfection. Cell culture media containing resistance test vector viral particles was harvested one to four days after transfection and was passed through a […] filter before being used to infect target host cells, or being stored at −80° C. HIV capsid protein (p24) levels in the harvested cell culture media were determined by an EIA method as described by the manufacturer (SAIC; Frederick, Md.). Before infection, target cells (293 and 293/T) were plated in cell culture media. Control infections were performed using cell culture media from mock transfections (no DNA) or transfections containing the resistance test vector plasmid DNA without the envelope expression plasmid. One to three or more days after infection, the media was removed and cell lysis buffer (Promega) was added to each well. Cell lysates were assayed for luciferase activity (FIG. 3). The inhibitory effect of the drug was determined using the following equation:
(§6) % luciferase inhibition=1−(RLUluc[drug]÷RLUluc)×100
(§7) where RLUluc [drug] is the Relative Light Unit of luciferase activity in infected cells in the presence of drug, and RLUluc is the Relative Light Unit of luciferase activity in infected cells in the absence of drug. IC50values were obtained from the sigmoidal curves that were generated from the data by plotting the percent inhibition of luciferase activity vs. the log10 drug concentration. The percent luciferase stimulation is the negative of the % inhibition calculated using the formula above.
A resistance test vector was constructed as described in Example 1 from a virus sample obtained from patient 10829. The prior and current treatment regimens are unknown. Isolation of viral RNA and RT/PCR was used to generate a patient derived segment (PDS) that comprised viral sequences coding for all of PR and aa 1-313 of RT. The PDS were inserted into an indicator gene viral vector to generate a resistance test vector designated RTV-010829. RTV-010829 was then tested in a phenotypic assay to determine accurately and quantitatively the level of susceptibility to a panel of anti-retroviral drugs. […]

RTV-1033-3/106V = assay: Phenotypic susceptibility assay, RTV-1033-3/106V; conditions: RTV-1033-3 with V106A reverted
Text: as §4, §5, §6, §7
(§8) A resistance test vector containing all of the mutations present in RTV-1033-3 except for V106A (RTV-1033-3/106V) was constructed and tested using the phenotypic assay described earlier. The results were compared to those determined using the parent RTV-1033-3. We determined the pattern of phenotypic susceptibility to the NNRTIs, delavirdine, nevirapine and efavirenz, in the reverted vector, RTV-1033-3/106V.

RTV-1033-3/106V/227F = assay: Phenotypic susceptibility assay, RTV-1033-3/106V/227F; conditions: RTV-1033-3 with V106A and F227L reverted
Text: as §4, §5, §6, §7
as §8, with “and F227L (RTV-1033-3/106V/227F)” for “(RTV-1033-3/106V)”, “RTV-1033-3/106V/227F.” for “RTV-1033-3/106V.”

[1] = system: RTV-1033-3/106V/227F/286T; assay: Phenotypic susceptibility assay, RTV-1033-3/106V/227F/286T; conditions: RTV-1033-3 with V106A, F227L and T286A reverted
Text: as §4, §5, §6, §7
as §8, with “V106A, F227L and T286A (RTV-1033-3/106V/227F/286T)” for “V106A (RTV-1033-3/106V)”, “RTV-1033-3/106V/227F/286T.” for “RTV-1033-3/106V.”

RTV-309-3 = assay: Phenotypic susceptibility assay, RTV-309-3; conditions: single clone from the RTV-309 pool
Text: as §1, §2, §3

Row | Structure (SMILES) | decrease in susceptibility (RTV-1046 and RTV-887) [fold] | drug-dependent stimulation of viral replication (RTV-010829) [%] | decrease in susceptibility (RTV-010829) [fold] | drug-dependent stimulation of viral replication (RTV-1033-3/106V) | increase in susceptibility (hyper-susceptibility) compared to wild type control RTV (RTV-1033-3/106V) [fold] | drug-dependent stimulation of viral replication (RTV-1033-3/106V/227F) [%] | reductions in susceptibility compared to wild type control RTV (RTV-1033-3/106V/227F) [fold] | drug-dependent stimulation of viral replication [1] [%] | reductions in susceptibility compared to wild type control RTV [1] [fold] | reduction in susceptibility (RTV-309-3) | reduction in susceptibility compared to wild type control RTV (RTV-1033-3/106V)
1 | CC(C)Nc1cccnc1N1CCN(C(=O)c2cc3cc(NS(C)(=O)=O)ccc3[nH]2)CC1 [delavirdine] | > 250 | ~100 | > 250 | no drug-dependent stimulation | 20 | ~80 | 6 | ~60 | 3 | wild type pattern of susceptibility | 
2 | O=C1Nc2ccc(Cl)cc2[C@@](C#CC2CC2)(C(F)(F)F)O1 [efavirenz] | 5 | ~80 | > 450 | ~20% |  | ~80 | 6 | ~50 | 5 | wild type pattern of susceptibility | no reduction
3 | Cc1ccnc2c1NC(=O)c1cccnc1N2C1CC1 [nevirapine] | > 600 | ~100 | > 600 | ~40% |  | ~110 | 13 | ~70 | 6 | 3 fold | 9 fold
